Assay results published in PMC6753678, “Fueling Open Innovation for Malaria Transmission-Blocking Drugs: Hundreds of Molecules Targeting Early Parasite Mosquito Stages” (Frontiers in Microbiology, 2019).
Where two headings read alike, the source gives them in different places.

Tests used:
[1] = tested on: P. falciparum late stage (stages IV-V) gametocytes; parameters: method as in Almela et al 2016; conditions: ref Almela et al 2016, read-out: Pf GCT ATP IC50, cited from earlier work
HepG2 cells [2] = conditions: ref Almela et al 2016, cited from earlier work; for HepG2 cytoxicity (Pf GCT ATP screen): HepG2 value reported with Pf GCT ATP screen
[3] = tested on: P. falciparum late stage (stages IV-V) gametocytes; assay: P. falciparum late stage gametocyte ATP depletion assay (Pf GC-ATP); conditions: 1: YES, 0: NO
HepG2 cells [4] = assay: HepG2 cytotoxicity assay
How it was run: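 HepG2 cells, 2,500 per well in MEM with 10% FBS and 1% NEAA, exposed to compounds for 48 h at 37°C, 5% CO2. Viability read by fluorescence; percent inhibition relative to 50 μM doxorubicin and DMSO controls.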

[5] = tested on: P. berghei ookinete development; conditions: primary screen at 1 μM
[6] = HepG2 cytotoxicity unified across screens, bounds (>) given as plain numbers
[7] = P. falciparum late stage gametocyte ATP assay
[8] = HepG2 data listed with Pf GCT ATP screen
[9] = unified HepG2 value across the three screens
[10] = P. falciparum late stage gametocyte ATP assay, TCAMS screen
[11] = >10-fold selectivity over cytotoxicity
[12] = HepG2 cytotoxicity unified across screens, >25 set to 25.00

| Compound | IC50 ([1]; TCAMS library screen) [nM] | HepG2 cytoxicity (Pf GCT ATP screen) (HepG2 cells [2]) [µM] | Is compound selective in assay? Pf GC-ATP active? [3] | IC50 [1, 10] [nM] | Is compound selective in assay? Pf GC-ATP active? [3, 11] | Unified cytotox (HepG2 cells [4]; [12]) [µM] | also measured |
| --- | --- | --- | --- | --- | --- | --- | --- |
| Cl.N=c1n(Cc2ccc(Cl)cc2)c2ccccc2n1CC(O)c1ccc(Cl)c(Cl)c1 (centres unmarked) [TCMDC-123813] | 360 | 6.5 | 1 (1: YES) | – | – | – | Unified cytotox (HepG2 cells [4]; [6]): 6.50 µM |
| O=C(Nc1nc(-c2ccccn2)cc2ccccc12)c1cccc(Cl)c1 [TCMDC-123886] | 500 | >25 | 1 (1: YES) | – | – | – | – |
| COc1ccc(C[C@H](N)C(=O)N[C@H]2[C@@H](O)[C@H](n3cnc4c(N(C)C)ncnc43)O[C@@H]2CO)cc1.Cl [TCMDC-123927] | 650 | 2.69 | 0 (0: NO) | – | – | – | Unified cytotox (HepG2 cells [4]; [6]): 2.69 µM |
| Cc1ccc(C)c(NC(=O)CC2C(=O)N(c3ccccc3)C(=S)N2Cc2ccco2)c1 (centres unmarked) [TCMDC-124000] | 1300 | >10 | 1 (1: YES) | – | – | – | – |
| Cl.N=c1n(CCN2CCCCC2)c2ccccc2n1CC(O)c1ccc(Cl)c(Cl)c1 (centres unmarked) [TCMDC-124064] | 3270 | 5.2 | 0 (0: NO) | – | – | – | Unified cytotox (HepG2 cells [4]; [6]): 5.20 µM |
| CCCCCCCn1c(=N)n(CC(O)c2ccc(Cl)c(Cl)c2)c2ccccc21.Cl (centres unmarked) [TCMDC-124065] | 2020 | 6 | 0 (0: NO) | – | – | – | Unified cytotox (HepG2 cells [4]; [6]): 6.00 µM |
| CCCCOc1ccc(C(=O)C(CCC(CNC(C)(C)C)C(=O)c2ccc(OCCCC)cc2)CNC(C)(C)C)cc1.Cl (centres unmarked) [TCMDC-124120] | 300 | 3.1 | 1 (1: YES) | – | – | – | Unified cytotox (HepG2 cells [4]; [6]): 3.10 µM |
| CCCCCOc1ccc(C(O)C(CCC(CN2CCCCCC2)C(O)c2ccc(OCCCCC)cc2)CN2CCCCCC2)cc1.Cl (centres unmarked) [TCMDC-124174] | 1200 | 6.8 | 0 (0: NO) | – | – | – | Unified cytotox (HepG2 cells [4]; [6]): 6.80 µM |
| Oc1c(C(Nc2nc3ccccc3s2)c2ccc(OC(F)F)cc2)ccc2cccnc12 (centres unmarked) [TCMDC-124379] | 440 | 24.1 | 1 (1: YES) | – | – | – | Unified cytotox (HepG2 cells [4]; [6]): 24.10 µM |
| Cc1cc(Nc2ccncc2)n2nc(C)c(-c3ccc(Cl)cc3)c2n1 [TCMDC-124478] | 910 | >50 | 1 (1: YES) | – | – | – | – |
| O=C(O)C(=O)O.Oc1c(CN2CCC(Cc3ccccc3)CC2)cc(Cl)c2cccnc12 [TCMDC-124594] | 600 | 9.6 | 1 (1: YES) | – | – | – | Unified cytotox (HepG2 cells [4]; [6]): 9.60 µM |
| Cc1ccc(-n2nc(-c3ccccc3)c3cc(C(=O)NCCN)sc32)cc1 [TCMDC-124776] | 1110 | 7.83 | 0 (0: NO) | – | – | – | Unified cytotox (HepG2 cells [4]; [6]): 7.83 µM |
| COc1ccccc1-c1cccc(-c2cccc(NC(=O)c3ccc([N+](=O)[O-])o3)c2)n1 [TCMDC-124800] | 1660 | 11.47 | 0 (0: NO) | – | – | – | Unified cytotox (HepG2 cells [4]; [6]): 11.47 µM |
| O=C(Nc1cccc(-c2cccc(-c3ccc(F)cc3)n2)c1)c1ccc([N+](=O)[O-])o1 [TCMDC-124807] | – | – | 0 (0: NO) | – | – | – | IC50 [1, 7]: 1530 nM; HepG2 cytoxicity (HepG2 cells [2]; [8]): 6.94 µM; Unified cytotox (HepG2 cells [4]; [9]): 6.94 µM |
| CCc1nn2c(Nc3ccncc3)cc(C)nc2c1-c1ccccc1 [TCMDC-124917] | – | – | 1 (1: YES) | – | – | – | IC50 [1, 7]: 1900 nM; HepG2 cytoxicity (HepG2 cells [2]; [8]): >25 µM |
| Cc1cc(Nc2ccncc2)n2nc(C)c(-c3ccccc3Cl)c2n1 [TCMDC-124918] | – | – | 1 (1: YES) | – | – | – | IC50 [1, 7]: 1940 nM; HepG2 cytoxicity (HepG2 cells [2]; [8]): >25 µM |
| Cc1nn(CC(C)C)c2sc(C(=O)N3CCN(S(=O)(=O)c4ccc(C#N)cc4)CC3)cc12 [TCMDC-125045] | – | – | 1 (1: YES) | – | – | – | IC50 [1, 7]: 2090 nM; HepG2 cytoxicity (HepG2 cells [2]; [8]): >25 µM |
| COc1ccc(NC(=O)C2c3ccccc3C(=O)N(CC(C)C)C2c2cccs2)cc1OC (centres unmarked) [TCMDC-125289] | – | – | 1 (1: YES) | – | – | – | IC50 [1, 7]: 430 nM; HepG2 cytoxicity (HepG2 cells [2]; [8]): >25 µM |
| CCN(CC)CCCOC(=O)c1ccc2c(c1)-c1ccc(C(=O)OCCCN(CC)CC)c3cccc-2c13.Cl [TCMDC-125491] | – | – | 1 (1: YES) | – | – | – | IC50 [1, 7]: 140 nM; HepG2 cytoxicity (HepG2 cells [2]; [8]): 20 µM; Unified cytotox (HepG2 cells [4]; [9]): 20.00 µM |

| Compound | IC50 ([1]; TCAMS library screen) [nM] | HepG2 cytoxicity (Pf GCT ATP screen) (HepG2 cells [2]) [µM] | Is compound selective in assay? Pf GC-ATP active? [3] | IC50 [1, 10] [nM] | Is compound selective in assay? Pf GC-ATP active? [3, 11] | Unified cytotox (HepG2 cells [4]; [12]) [µM] | also measured |
| --- | --- | --- | --- | --- | --- | --- | --- |
| CC(C)c1ccc(NC(=S)NN=Cc2ccccn2)cc1 [TCMDC-125520] | – | – | 1 (1: YES) | – | – | – | IC50 [1, 7]: 10 nM; HepG2 cytoxicity (HepG2 cells [2]; [8]): 12.8 µM; Unified cytotox (HepG2 cells [4]; [9]): 12.80 µM |
| COc1cccc(C(=O)NC(C=Cc2ccccc2)c2cc(Cl)c3cccnc3c2O)c1 (centres unmarked) [TCMDC-125550] | – | – | 1 (1: YES) | – | – | – | IC50 [1, 7]: 590 nM; HepG2 cytoxicity (HepG2 cells [2]; [8]): >25 µM |
| CCN(CC)/C(=N\C(=N)NCCCCCCNC(=N)/N=C(\Nc1ccc(Cl)cc1)N(CC)CC)Nc1ccc(Cl)cc1 [TCMDC-131807] | – | – | 1 (1: YES) | – | – | – | IC50 [1, 7]: 370 nM; HepG2 cytoxicity (HepG2 cells [2]; [8]): >25 µM |
| CCN(CC)/C(=N/C(=N)Nc1ccc(Cl)cc1)NCCCCCCCCN/C(=N\C(=N)Nc1ccc(Cl)cc1)N(CC)CC [TCMDC-131812] | – | – | 1 (1: YES) | – | – | – | IC50 [1, 7]: 1030 nM; HepG2 cytoxicity (HepG2 cells [2]; [8]): >25 µM |
| CCN(CC)/C(=N/C(=N)NCc1ccc(Cl)cc1)NCCCCCCN/C(=N\C(=N)NCc1ccc(Cl)cc1)N(CC)CC [TCMDC-131817] | – | – | 1 (1: YES) | – | – | – | IC50 [1, 7]: 790 nM; HepG2 cytoxicity (HepG2 cells [2]; [8]): >25 µM |
| CCOc1c(CCNCCCCNCCc2ccc3ccccc3c2OCC)ccc2ccccc12.CS(=O)(=O)O [TCMDC-137759] | – | – | – | 170 | 1 (1: YES) | – | HepG2 cytoxicity (HepG2 cells [2]; reported with the Pf GCT ATP screen): <1.56 µM |
| Cl.N=C(N)NN=Cc1c2ccccc2c(Cl)c2cc(Cl)ccc12 [TCMDC-137903] | – | – | – | 2350 | 0 (0: NO) | 7.50 | % inhibition, Replicate A [5]: 53.67%; % inhibition, Replicate B [5]: 40.83% |
| CN1CCC(N(Cc2ccc(-c3ccc(Cl)cc3)cc2)C(=O)Cn2c(CCc3cccc(F)c3F)cc(=O)c3ccccc32)CC1.O=C(O)C(O)C(O)C(=O)O [TCMDC-141357] | – | – | – | 3430 | 0 (0: NO) | 6.70 | % inhibition, Replicate A [5]: 22.22%; % inhibition, Replicate B [5]: 55.97% |
| CN1CCC(C(=O)N(Cc2ccc(-c3ccc(CNCCc4ccccc4)cn3)cc2)C2CCN(Cc3ccccc3)CC2)CC1.O=C(O)C(F)(F)F [TCMDC-141552] | – | – | – | 900 | 1 (1: YES) | 9.27 | – |
| CCN(CC)CCN(Cc1ccc(-c2ccc(C(F)(F)F)cc2)cc1)C(=O)c1ccc(-c2ccc(NC(=O)OC)cc2C)cc1 [TCMDC-141558] | – | – | – | 3710 | 0 (0: NO) | 5.40 | – |
| CCN(CC)CCCNc1ncc2c(-c3ccc(NC(=O)Nc4cc(C(F)(F)F)ccc4F)cc3)nn(C)c2n1.O=C(O)C(F)(F)F [TCMDC-141583] | – | – | – | 3480 | 0 (0: NO) | 9.50 | – |
| CCN(Cc1ccc(-c2ccc(C(F)(F)F)cc2)cc1)C(=O)Cn1c(SCc2cccc(F)c2F)cc(=O)c2cc(CN3CCCCC3)ccc21.Cl [TCMDC-141592] | – | – | – | 2340 | 0 (0: NO) | 4.20 | – |
| CN(C)CCCNc1nccc(N(C)c2ccc(NC(=O)Nc3cc(C(F)(F)F)ccc3F)cc2)n1.O=C(O)C(F)(F)F [TCMDC-141633] | – | – | – | 1000 | 1 (1: YES) | 17.30 | – |
| O=C(Nc1cccc(Oc2ccccc2)c1)N[C@H]1CCN(Cc2ccc(OCCCN3CCCCC3)cc2)C1 [TCMDC-141785] | – | – | – | 1130 | 0 (0: NO) | 3.52 | – |
| Cc1ccc2nc(C)cc(N/N=C/c3ccc([N+](=O)[O-])cc3)c2c1 [TCMDC-142070] | – | – | – | 9410 | 0 (0: NO) | 0.19 | – |
| COc1ccc2c(=NN=Cc3ccc(OC)c4ccccc34)cc(C)[nH]c2c1 [TCMDC-142218] | – | – | – | 770 | 1 (1: YES) | 7.86 | – |
| Nc1cc(C=Cc2ccc([N+](=O)[O-])o2)nc2ccccc12 [TCMDC-142295] | – | – | – | 200 | 1 (1: YES) | 11.70 | – |
| Nc1cc(/C=C/c2ccc([N+](=O)[O-])s2)nc2ccccc12 [TCMDC-142296] | – | – | – | 600 | 1 (1: YES) | 7.60 | – |
